Measurements from US11407711B2, “Benzamide compound and use thereof” (METISA BIOTECHNOLOGY CO., LTD., priority 2018, dated 2022).
Like-named read-outs stand apart in the source and are kept apart here.

Legend:
Assay type in all cases: in vivo
armyworm = test: Insecticidal activity against armyworm (Airbrush spray on maize blade segments); details: 72 h, read-out: fatality rate against armyworm
Method: (§1) The compound to be tested was dissolved by a mixed solvent of acetone/methanol (1:1), and then diluted by water containing 0.1% (wt) Tween 80 to the required concentration.
(§2) An Airbrush spray method was adopted for the determination of the activity, with armyworm, Plutella xylostella and Chilo suppressalis as targets.
Determination method: maize blades were cut into 2 cm (length) segments; with the pressure of Airbrush spray being 10 psi (about 0.7 kg/cm^2), both sides of each blade segment were sprayed with the amount of 0.5 ml. After dried in the shade, each segment was inoculated with 10 3rd-instar larvaes, 3 repeats for each segment. And then, the treated segments were put into an observation room (25° C., relative humidity: 60-70%) for cultivation; the number of the survivals was surveyed 1 d, 2 d and 3 d after administration, and then the death rate was calculated.

Plutella xylostella = test: Insecticidal activity against Plutella xylostella (Airbrush spray on cabbage leaf discs); details: for pest or weed control at 1 µg/mL / pest or weed control at 10 µg/mL / pest or weed control at 0.5 µg/mL: Plutella xylostella, foliar, 72 h; for Fatality rate (%, 3 d after administration) 5 mg/L: Table 72, 5 mg/L; for Fatality rate (%, 3 d after administration) 0.05 mg/L: Table 74, 0.05 mg/L
Method: as §1, §2
Determination method: cabbage blades were punched into 2 cm (diameter) leaf discs by a puncher; with the pressure of Airbrush spray being 10 psi (about 0.7 kg/cm^2), both sides of each leaf disc were sprayed with the amount of 0.5 ml. After dried in the shade, each leaf disc was inoculated with 10 3rd-instar larvaes, 3 repeats for each leaf disc. And then, the treated leaf discs were put into an observation room (25° C., relative humidity: 60-70%) for cultivation; the number of the survivals was surveyed 1 d, 2 d and 3 d after administration, and then the death rate was calculated.

Chilo suppressalis = test: Insecticidal activity against Chilo suppressalis (spray on rice seedlings, stems fed to larvae); details: for pest or weed control at 4 µg/mL / pest or weed control at 40 µg/mL: Chilo suppressalis, 72 h, read-out: fatality rate against Chilo suppressalis
Method: as §1, §2
Determination method: 1) preparation of rice seedlings: rice was cultivated in small plastic cups (diameter: 4.5 cm and height: 4 cm) at a constant temperature room (temperature: 26-28° C., relative humidity: 60-80% around and illumination: 16 hL:8 hD), after the rice grew to a 4-5 leaf stage, vigorous and uniform-growth rice seedlings were selected and treated with an insecticide, 3 repeats for each treatment. 2) Preparation of pests for test: 3rd-instar larvaes of Chilo suppressalis fed continuously in the room. 3) Inoculation of pests on rice stems by spray. The whole plants of the rice seedlings were sprayed by a spray method uniformly, with the dose of 15 ml for each treatment. The blank control was treated first, and the above operation was repeated in an order of lower to higher test concentration. After sprayed, rice seedlings were placed in the shade to dry the insecticide liquor, and then stalks about 5 cm above the basal part of the stems were cut to be fed to the pests for test. Glass petri dishes (diameter: […]) were prepared, cushioned by filter paper at the bottom thereof, and subjected to water addition for moisturizing; about 20 pieces of rice stems were put in each dish and inoculated with 10 larvaes; then the petri dishes were closed by non-woven fabrics and placed in a constant temperature room for culture. The number of survivals was surveyed 3 d after administration.

[1] = 0.5 mg/L, 3 d after administration, 3rd-instar larvae
[2] = 1 mg/L, 3 d after administration, read-out: fatality rate against Plutella xylostella
[3] = Table 71, 10 mg/L, 3 d after administration, read-out: Fatality rate (%, 3 d after administration) 10 mg/L
[4] = 40 mg/L, survivals surveyed 3 d after administration
[5] = Table 73, 0.5 mg/L, 3 d after administration
[6] = Table 73, 1 mg/L, 3 d after administration
[7] = Table 75, fast-acting efficacy, dose 0.5 mg/L
[8] = read-out: Fatality rate (%, 3 d after administration) 10 mg/L, Table 71, 10 mg/L, 3 d after administration
[9] = read-out: fatality rate against Plutella xylostella, 1 mg/L, 3 d after administration
[10] = Table 72, 1 mg/L, 3 d after administration
[11] = Table 74, 0.5 mg/L, 3 d after administration
[12] = Table 76, fast-acting efficacy, dose 0.05 mg/L

## N#CCN(C(=O)c1cccc(NC(=O)c2ccccc2)c1F)c1c(Cl)cc(C(F)(C(F)(F)F)C(F)(F)F)cc1Cl [Compound 17.321]
armyworm; 0.1 mg/L, 3 d after administration, 3rd-instar larvae
  pest or weed control at 0.1 µg/mL: ≥ 90%
armyworm; [1]
  pest or weed control at 0.5 µg/mL: ≥ 90%
Plutella xylostella; [2]
  pest or weed control at 1 µg/mL: ≥ 90%
Plutella xylostella; [3]
  pest or weed control at 10 µg/mL: 100%
Chilo suppressalis; 4 mg/L, survivals surveyed 3 d after administration
  pest or weed control at 4 µg/mL: ≥ 90%
Chilo suppressalis; [4]
  pest or weed control at 40 µg/mL: ≥ 90%

## COCN(C(=O)c1ccccc1)c1cccc(C(=O)N(C)c2c(C)cc(C(F)(C(F)(F)F)C(F)(F)F)cc2C)c1 [CK1, reference compound]
Plutella xylostella; [3]
  pest or weed control at 10 µg/mL: 0%

## NC(=O)CCN(C(=O)c1ccccc1)c1cccc(C(=O)N(CCC(N)=O)c2c(Br)cc(C(F)(C(F)(F)F)C(F)(F)F)cc2C(F)(F)F)c1F [CK10, reference compound]
Plutella xylostella; [5]
  Fatality rate (%, 3 d after administration) 0.5 mg/L: 0%
Plutella xylostella; [6]
  Fatality rate (%, 3 d after administration) 1 mg/L: 55%

## O=C(Nc1cccc(C(=O)Nc2c(Br)cc(C(F)(C(F)(F)F)C(F)(F)F)cc2Br)c1F)c1ccccc1 [CK15, reference compound]
Plutella xylostella; Table 73, 0.5 mg/L, 3 d after administration, read-out: Fatality rate (%, 3 d after administration) 0.5 mg/L
  pest or weed control at 0.5 µg/mL: 50%
Plutella xylostella; Table 73, 1 mg/L, 3 d after administration, read-out: Fatality rate (%, 3 d after administration) 1 mg/L
  pest or weed control at 1 µg/mL: 90%
Plutella xylostella; [7]
  Fatality rate (%) 1 d after administration: 0%
  Fatality rate (%) 2 d after administration: 30%
Plutella xylostella; Table 75, fast-acting efficacy, dose 0.5 mg/L, 3 d after administration
  Fatality rate (%) 3 d after administration: 50%
Chilo suppressalis; Table 77, 1.25 mg/L, 3 d after administration
  Fatality rate (%, 3 d after administration) 1.25 mg/L: 8.6%
Chilo suppressalis; Table 77, 2.5 mg/L, 3 d after administration
  Fatality rate (%, 3 d after administration) 2.5 mg/L: 22.2%
Chilo suppressalis; Table 77, 5 mg/L, 3 d after administration
  Fatality rate (%, 3 d after administration) 5 mg/L: 50.3%

## Cc1cc(C(F)(C(F)(F)F)C(F)(F)F)cc(Br)c1N(CC#N)C(=O)c1cccc(NC(=O)c2ccccc2)c1F [Compound 20.321]
armyworm; [1]
  pest or weed control at 0.5 µg/mL: ≥ 90%
Plutella xylostella; [2]
  pest or weed control at 1 µg/mL: ≥ 90%
Plutella xylostella; [3]
  pest or weed control at 10 µg/mL: 100%
Plutella xylostella; Table 72, 1 mg/L, 3 d after administration, read-out: Fatality rate (%, 3 d after administration) 1 mg/L
  pest or weed control at 1 µg/mL: 93.9%
Plutella xylostella; 3 d after administration
  Fatality rate (%, 3 d after administration) 5 mg/L: 100%
Chilo suppressalis; [4]
  pest or weed control at 40 µg/mL: ≥ 90%

## NC(=O)CCN(C(=O)c1ccccc1)c1cccc(C(=O)N(CCC(N)=O)c2c(Br)cc(C(F)(C(F)(F)F)C(F)(F)F)cc2C(F)(F)F)c1F [CK7, reference compound]
Plutella xylostella; read-out: Fatality rate (%, 3 d after administration) 0.5 mg/L, Table 74, 0.5 mg/L, 3 d after administration
  pest or weed control at 0.5 µg/mL: 70%
Plutella xylostella; 3 d after administration
  Fatality rate (%, 3 d after administration) 0.05 mg/L: 0%

## COCN(C(=O)c1ccccc1)c1cccc(C(=O)Nc2c(C)cc(C(F)(C(F)(F)F)C(F)(F)F)cc2C)c1 [CK2, reference compound]
Plutella xylostella; [3]
  pest or weed control at 10 µg/mL: 0%

## NC(=O)CCN(C(=O)c1ccccc1)c1cccc(C(=O)N(CCC(N)=O)c2c(Br)cc(C(F)(C(F)(F)F)C(F)(F)F)cc2C(F)(F)F)c1F [CK9, reference compound]
Plutella xylostella; [5]
  Fatality rate (%, 3 d after administration) 0.5 mg/L: 0%
Plutella xylostella; [6]
  Fatality rate (%, 3 d after administration) 1 mg/L: 55%

## NC(=O)CCN(C(=O)c1ccccc1)c1cccc(C(=O)N(CCC(N)=O)c2c(Br)cc(C(F)(C(F)(F)F)C(F)(F)F)cc2C(F)(F)F)c1F [CK13, reference compound]
Plutella xylostella; [5]
  Fatality rate (%, 3 d after administration) 0.5 mg/L: 0%
Plutella xylostella; [6]
  Fatality rate (%, 3 d after administration) 1 mg/L: 75%

## N#CCN(C(=O)c1ccccc1)c1cccc(C(=O)Nc2c(Cl)cc(C(F)(C(F)(F)F)C(F)(F)F)cc2Br)c1F [Compound 7.321]
armyworm
  pest or weed control at 0.1 µg/mL: ≥ 90%
  pest or weed control at 0.5 µg/mL: ≥ 90%
Plutella xylostella; [8]
  pest or weed control at 10 µg/mL: 100%
Plutella xylostella; [9]
  pest or weed control at 1 µg/mL: ≥ 90%
Chilo suppressalis
  pest or weed control at 4 µg/mL: ≥ 90%
  pest or weed control at 40 µg/mL: ≥ 90%

## NC(=O)CCN(C(=O)c1ccccc1)c1cccc(C(=O)N(CCC(N)=O)c2c(Br)cc(C(F)(C(F)(F)F)C(F)(F)F)cc2C(F)(F)F)c1F [CK4, reference compound]
Plutella xylostella; [8]
  pest or weed control at 10 µg/mL: 0%

## N#CCN(C(=O)c1ccccc1)c1cccc(C(=O)Nc2c(Br)cc(C(F)(C(F)(F)F)C(F)(F)F)cc2I)c1F [Compound 8.321]
armyworm
  pest or weed control at 0.1 µg/mL: ≥ 90%
  pest or weed control at 0.5 µg/mL: ≥ 90%
Plutella xylostella; [8]
  pest or weed control at 10 µg/mL: 100%
Plutella xylostella; [9]
  pest or weed control at 1 µg/mL: ≥ 90%
Chilo suppressalis
  pest or weed control at 4 µg/mL: ≥ 90%
  pest or weed control at 40 µg/mL: ≥ 90%

## NC(=O)CCN(C(=O)c1ccccc1)c1cccc(C(=O)N(CCC(N)=O)c2c(Br)cc(C(F)(C(F)(F)F)C(F)(F)F)cc2C(F)(F)F)c1F [CK12, reference compound]
Plutella xylostella; [10]
  Fatality rate (%, 3 d after administration) 1 mg/L: 0%
Plutella xylostella; 3 d after administration
  Fatality rate (%, 3 d after administration) 5 mg/L: 60%

## Cc1cc(C(F)(C(F)(F)F)C(F)(F)F)cc(C)c1NC(=O)c1cccc(N(C#N)C(=O)c2ccccc2)c1 [CK3, reference compound]
Plutella xylostella; [3]
  pest or weed control at 10 µg/mL: 0%

## NC(=O)CCN(C(=O)c1ccccc1)c1cccc(C(=O)N(CCC(N)=O)c2c(Br)cc(C(F)(C(F)(F)F)C(F)(F)F)cc2C(F)(F)F)c1F [CK14, reference compound]
Plutella xylostella; 3 d after administration
  Fatality rate (%, 3 d after administration) 0.05 mg/L: 0%
Plutella xylostella; [11]
  Fatality rate (%, 3 d after administration) 0.5 mg/L: 60%

## NC(=O)CCN(C(=O)c1ccccc1)c1cccc(C(=O)N(CCC(N)=O)c2c(Br)cc(C(F)(C(F)(F)F)C(F)(F)F)cc2C(F)(F)F)c1F [CK8, reference compound]
Plutella xylostella; [10]
  Fatality rate (%, 3 d after administration) 1 mg/L: 0%
Plutella xylostella; 3 d after administration
  Fatality rate (%, 3 d after administration) 5 mg/L: 65.8%

## NC(=O)CCN(C(=O)c1ccccc1)c1cccc(C(=O)N(CCC(N)=O)c2c(Br)cc(C(F)(C(F)(F)F)C(F)(F)F)cc2C(F)(F)F)c1F [CK5, reference compound]
Plutella xylostella; read-out: Fatality rate (%, 3 d after administration) 1 mg/L, Table 72, 1 mg/L, 3 d after administration
  pest or weed control at 1 µg/mL: 0%
Plutella xylostella; 3 d after administration
  Fatality rate (%, 3 d after administration) 5 mg/L: 63.5%

## NC(=O)CCN(C(=O)c1ccccc1)c1cccc(C(=O)N(CCC(N)=O)c2c(Br)cc(C(F)(C(F)(F)F)C(F)(F)F)cc2C(F)(F)F)c1F [CK11, reference compound]
Plutella xylostella; 3 d after administration
  Fatality rate (%, 3 d after administration) 0.05 mg/L: 0%
Plutella xylostella; [11]
  Fatality rate (%, 3 d after administration) 0.5 mg/L: 75%

## CN(C(=O)c1ccccc1)c1cccc(C(=O)Nc2c(Br)cc(C(F)(C(F)(F)F)C(F)(F)F)cc2C(F)(F)F)c1F [CK16, broflanilide, reference compound]
Plutella xylostella; Table 74, 0.5 mg/L, 3 d after administration, read-out: Fatality rate (%, 3 d after administration) 0.5 mg/L
  pest or weed control at 0.5 µg/mL: 100%
Plutella xylostella; 3 d after administration
  Fatality rate (%, 3 d after administration) 0.05 mg/L: 80.8%
Plutella xylostella; [12]
  Fatality rate (%) 1 d after administration: 0%
  Fatality rate (%) 2 d after administration: 52.5%
Plutella xylostella; Table 76, fast-acting efficacy, dose 0.05 mg/L, 3 d after administration
  Fatality rate (%) 3 d after administration: 80.8%
Chilo suppressalis; Table 78, 0.625 mg/L, 3 d after administration
  Fatality rate (%, 3 d after administration) 0.625 mg/L: 10%
Chilo suppressalis; Table 78, 1.25 mg/L, 3 d after administration
  Fatality rate (%, 3 d after administration) 1.25 mg/L: 60.3%
Chilo suppressalis; Table 78, 2.5 mg/L, 3 d after administration
  Fatality rate (%, 3 d after administration) 2.5 mg/L: 85.5%

## NC(=O)CCN(C(=O)c1ccccc1)c1cccc(C(=O)N(CCC(N)=O)c2c(Br)cc(C(F)(C(F)(F)F)C(F)(F)F)cc2C(F)(F)F)c1F [CK6, reference compound]
Plutella xylostella; read-out: Fatality rate (%, 3 d after administration) 1 mg/L, Table 73, 1 mg/L, 3 d after administration
  pest or weed control at 1 µg/mL: 68%
Plutella xylostella; [5]
  Fatality rate (%, 3 d after administration) 0.5 mg/L: 10%
